{"source": "patent US8741970B2", "about": "“Composition and method for the enhancement of the efficacy of drugs” (Alchemia Oncology Pty Limited, priority 1999, dated 2014)", "key": {"[1]": {"system": "murine Lewis lung xenografts", "conditions": "low dose of 0.01 mg/kg; cited from earlier work"}, "[2]": {"assay": "1H NMR deuterium exchange and transferred NOESY of MTX with HA", "assay_type": "physicochemical", "excerpt": "Solvent suppression of the water signal for NOESY, ROESY and TOCSY experiments was achieved using a modified WATERGATE sequence (Piotto et al., 1992) in which two gradient pulses of 1 ms was applied on either side of a binomial 3-9-19 pulse. Spectra was routinely acquired over 6024 Hz with 4096 complex data points in F2 and 512 increments in the F1 dimension, with 32 scans per increment for the TOCSY experiments and 80 scans for the NOESY. Slowly exchanging NH protons were detected by acquiring a series of one-dimensional (1D) spectra acquired over 16K data points and with 32 scans. […]"}, "[3]": {"assay": "1H NMR titration and diffusion experiments of 5-FU with HA", "assay_type": "physicochemical", "conditions": "600 MHz 1H NMR titration; HA 750 kDa, 3 mg/mL; pH 8.8 to 9.1", "protocol": "To further investigate the nature of the interaction between HA and chemotherapeutic drugs 1H Nuclear Magnetic Resonance (NMR) spectroscopy was used. Deuterium oxide (^2H2O (99.96%)) was obtained from Cambridge Isotope Laboratories. MTX was obtained from Faulding Pharmaceuticals and 5-FU and HA stock solutions were prepared as described previously.\nSpectra were recorded at 298 K on a Brüker DRX spectrometer operating at 600 MHz with a shielded gradient unit. The 2D experiments were recorded in phase-sensitive mode using time-proportional phase incrementation for quadrature detection in the t1 dimension (Marion & Wüthrich, 1983). The 2D experiments included TOCSY sequence using a MLEV-17 spin lock sequence (Bax & Davis, 1985) with a mixing time of 120 ms; NOESY (Kumar et al., 1980) with mixing times of 250 and 400 ms and ROESY spectrum with a mixing time of 250 ms. Temperature calibration of the probe was achieved by comparison to ethylene glycol chemical shifts. All chemical shifts (ppm) were referenced to the methyl resonance of 4,4-dimethyl-4-silapentane-1-sulfonate (DSS, 0 ppm).\nNMR diffusion experiments were acquired on a Brüker AMX spectrometer equipped with a gradient control unit operating at 500 MHz. All experiments were acquired with 16 or 64 scans at 298 K over 16K of data points and 7575 Hz. A gradient strength of 15.44 G/cm was employed for the diffusion experiments. […]"}, "[4]": {"conditions": "in vivo; cited from earlier work"}, "[5]": {"system": "Human Breast Cancer Xenografts (MDA-MB-468)", "assay": "5-FU/HA adjuvant therapy efficacy, 6-month study", "assay_type": "in vivo", "protocol": "(§1) One of the most commonly used treatment regimens for human breast cancer is cyclophosphamide, methotrexate and 5-fluorouacil which is administered on day 1 and 8 of a 28 day cycle. In human breast cancer the initial treatment regimen is for 6 cycles at which time the patient condition is re-assessed, therefore we tried to simulate the human treatment regimen as closely as possible by exposing the mice to 6 cycles (6 months) of treatment in a long term efficacy study and a 6 cycles (6 week) short term efficacy study. Considering the life cycle of a mouse is approximately 2 years we commenced both short-term and long-term treatment protocols as shown in Table 8.\n(§2) Mice were randomly divided into 7 groups of 8 animals per group for the short term study and 5 groups of 8 animals for the long term study (refer to Table 8 for dosage and treatment administration schedule).\n(§3) Animals were weighed and tumour volumes measured on the day of treatment application for long term study as described in Example 8. In the 6-week study animals were weighed and tumour volumes measured on a daily basis. […] It has been experimentally proven that stress can be a major factor in a patients response to chemotherapy (Shackney et al, 1978), therefore we ensured that equal numbers of mice were allocated to each cage, the animal number per cage varied from 5-8 depending on the stage of experimentation.\n(§4) The experimental end-point occurred when the animal had to be euthanised due to degree of disease progression or when the 6 month (long term) or 6 week (short term) treatment regimen was completed. Due to the animal ethics guidelines the animals were monitored fortnightly by an independent animal ethics officer who assessed the degree of disease progression.\nThe TDT is the time taken (days) for a tumour to double in mass or cell number, a parameter of tumour growth which is simple to measure and can be easily related to clinical tumour behaviour in conceptional terms (Shackney et al, 1978). By monitoring the tumour doubling time it is often possible to evaluate tumour chemotherapeutic response, as slowly growing tumours tend to respond poorly to chemotherapy (Schabel, 1975).\nThe overall patient survival time was calculated as the time (days or weeks) that the animal lived after the commencement of treatment."}, "[6]": {"system": "Human Breast Cancer Xenografts (MDA-MB-468)", "assay": "5-FU/HA adjuvant therapy efficacy, 6-week study", "assay_type": "in vivo", "protocol": "as §1, §2, §3, §4\nThe tissue was fixed for 16-24 h before histological processing. Fixed tissue was dehydrated stepwise to 100% ethanol and embedded in paraffin blocks from which 2-4 μm sections were placed on glass microscope slides. Staining the tissue sections with a haematoxylin nuclear stain and eosin cytoplasmic stain highlighted any pathological features that could indicate treatment toxicity.\nNine to 11 lymph nodes were collected per animal, ensuring that all nodes which drained the tumour area were collected. There are currently two methods used for the detection of lymph node metastasis:\nThe haematoxylin and eosin stained lymph nodes were examined by Dr P. Allen (certified pathologist) where each node was microscopically examined for the presence of tumour cells. The CEA immunostained lymph nodes were microscopically examined, where any positively stained nodes were counted and considered positive for lymph node metastasis.\nTumour volume was monitored on a daily or weekly basis by calliper measurements and tumour volume calculated as previously described in example 8.\nOne of the most common toxic effects of 5-FU is on the gastro-intestinal tract where haemorrhagic enteritis and intestinal perforation can occur (Martindale, 1993). Animals were monitored daily for GI tract upset such as diarrhoea and weekly for more severe toxicity manifestations such as weight loss. Weight loss was monitored by calculating net body weight as estimated by subtracting tumour weight, which was calculated as 1 g×tumour volume (cm^3) as cited in Shibamoto et al, 1996."}, "[7]": {"conditions": "iv 10.5 mg/kg (400 mg/m^2), within 30 min; cited from earlier work"}, "MDA-MB-468": {"system": "MDA-MB-468", "assay": "Drug cytotoxicity assay (cell count after 4 days in test media), MDA-MB-468", "assay_type": "cell-based", "conditions": "Homo sapiens, 96 h, 5-FU alone", "description": "A stock of HA solution (10 μM, 7 mg/ml) was prepared by dissolving desiccated HA (modal Mr 7×10^5 Da,) in 0.9% w/v pyrogen-free injection grade NaCl. To ensure a homogenous solution the HA was dissolved overnight at 4° C. followed by thorough vortexing. To ensure that ‘the HA had maintained its molecular weight during the preparation of the stock solution, the solution was analysed on a Sephacryl S-1000 size exclusion gel with column −40 specifications of 1.6 cm×70 cm, sample size 2 ml, flow rate 18.1/h and 2 ml fraction size. The HA was used at a final concentration of 1000 nm, with all dilutions made in the appropriate growth medium.\nBased on these plasma concentrations in vivo the following drug concentrations were selected; 0, 1, 5, 10, 20, 50, 100 μM 5-FU±100 nM HA. […] When the cultures reached confluence the cells were removed from the flasks in 0.25% trypsin/0.05% EDTA. The single-cell suspension was counted with a Coulter counter (ZM1 model) and cells were resuspended to 100,000 cells/ml in cell-specific media. Cells were plated into 24-well plates (2 cm^2 surface area) by adding 0.5 ml of cell suspension per well, resulting in 50,000 cells/well. […] After 4 days of growth in test media the cultures were washed with HBSS, the cells removed from the well by trypsinisation with 0.25% trypsin/0.05% EDTA and cells were counted with a Coulter Counter."}, "[8]": {"conditions": "control schedule HA D1,3 / 5-FU D 2, 4 of 7 day cycle"}}, "note": "Several values for one entry are separate records, joined by “and”; a condition that tells them apart may be missing. Equal entries are not always repeated."}
{"molecule": "CO[C@@]12[C@H](COC(N)=O)C3=C(C(=O)C(C)=C(N)C3=O)N1C[C@@H]1N[C@@H]12", "note": "[mitomycin C]", "values": [{"measurement": "anti-tumour activity", "setting": "[1]", "result": "did not demonstrate anti-tumour activity"}]}
{"molecule": "CN(Cc1cnc2nc(N)nc(N)c2n1)c1ccc(C(=O)N[C@@H](CCC(=O)O)C(=O)O)cc1", "note": "[MTX, methotrexate]", "values": [{"measurement": "time for all amine hydrogens of MTX to exchange with deuterium", "setting": "[2]; MTX and HA in 0.5% w/v Na2CO3 (pH 9), deuterium oxide added", "result": "≤ 4", "unit": "min"}, {"measurement": "interaction between MTX and HA (transferred NOESY)", "setting": "[2]; MTX/HA, no crosspeaks", "result": "negligible interaction"}]}
{"molecule": "O=c1[nH]cc(F)c(=O)[nH]1", "note": "[5-FU, 5-fluorouracil]", "values": [{"measurement": "interaction of 5-FU with HA (chemical shift of CH peak)", "setting": "[3]", "result": "does not appear to be interacting"}, {"measurement": "cure rate", "setting": "[4]", "result": 26, "unit": "%"}, {"measurement": "Experimental endpoint: immobilsed", "setting": "[5]; 6-month study, % of animals", "result": 62.5, "unit": "% immobilsed"}, {"measurement": "mice experiencing a cure (tumours fully necrosed and dropped off)", "setting": "[5]; 6-month study, after approximately 12 weeks of treatment", "result": "did not experience a “cure”"}, {"measurement": "TDT Mean ± SEM", "setting": "[5]; 6-month study, days 1 & 8 of 28 day cycle (HA followed by 5-FU: days 1, 2, 8, 9)", "result": "22.7 ± 2.9", "unit": "days"}, {"measurement": "Experimental endpoint: metabolic stress", "setting": "[5]; mouse, in vivo", "result": 37.5, "unit": "% metabolic"}, {"measurement": "primary tumour at end of the 6 week study compared with the saline group", "setting": "[6]", "result": "significantly smaller tumours"}, {"measurement": "Number of animal completing treatment", "setting": "[6]; [8]", "result": "8/8"}, {"measurement": "TDT Mean ± SEM", "setting": "[6]; [8]", "result": "15.3 ± 2.5", "unit": "days"}, {"measurement": "% of animals with lymph node metastasis", "setting": "[6]; days 1 & 2 of 7 day cycle", "result": 100, "unit": "%"}, {"measurement": "% of lymph node involved per animal mean ± SEM", "setting": "[6]; days 1 & 2 of 7 day cycle", "result": "14.3 ± 2.9", "unit": "%"}, {"measurement": "Number of new tumours", "setting": "[6]; days 1 & 2 of 7 day cycle", "result": 1}, {"measurement": "Number of animal completing treatment", "setting": "[6]; days 1 & 2 of 7 day cycle (HA followed by 5-FU: days 1-4)", "result": "8/8"}, {"measurement": "TDT Mean ± SEM", "setting": "[6]; days 1 & 2 of 7 day cycle (HA followed by 5-FU: days 1-4), 30 mg/kg 5-FU, 12.5 mg/kg HA", "result": "32.1 ± 3.5", "unit": "days"}, {"measurement": "peak plasma level", "setting": "[7]", "result": "8 μg/ml and 61 μM"}, {"measurement": "IC50", "setting": "MDA-MB-468", "result": "> 50", "unit": "µM"}]}
